Assay [1] relates to HIV-1 IIIB. Kind of assay: Anti-HIV activity in CEM cells (cytopathogenicity). The following applies: Human immunodeficiency virus 1, IIIB, CCRF-CEM. It counts as cell-based.
In another assay the test system is HSV. In words: Activity against replication of non-retroviruses. The class given is cell-based.
The test system of assay [2] is HIV-2 ROD. Kind of assay: MT-4/MTT-assay, protection against virus-induced cytopathic effect. The class given is cell-based. The following applies: Human immunodeficiency virus 2, MT4, 120 h; MT-4 cells, MTT, 5 days after infection.
The test system of another assay is UG270 subtype D. Kind of assay: Virucidal assay on clinical isolates, titration on PBMCs. The class given is cell-based, HIV-1. The following applies: 125 μM, 1 h 37°C, untreated control 25781.
Another assay deals with HIV-1 virus particles. In words: Virion-associated p24 of pre-treated, compound-cleared virus (ELISA). The following applies: compound-cleared HIV-1 virus stock.
For the next assay, the system named is UG275 subtype A. Kind of assay: Virucidal assay on clinical isolates, titration on PBMCs. It counts as cell-based, HIV-1. The following applies: 125 μM, 1 h 37°C, untreated control 16242.
The test system of assay [3] is HIV-1 IIIB. Kind of assay: MT-4/MTT-assay, protection against virus-induced cytopathic effect. The class given is cell-based. The following applies: MT-4 cells, MTT, 5 days after infection.
Another assay concerns NL4.3/AMD3100R. Kind of assay: microbe, parasite or virus in culture. The class given is cell-based, HIV-1. The following applies: Human immunodeficiency virus 1, Jurkat, 72 h, read-out: EC50 NL4.3/AMD3100R.
Another assay has as its system AZTR HIV-1 strain. In words: GFP-assay in Jurkat A72 (LTR-GFP) cells. The class given is cell-based. The following applies: Human immunodeficiency virus 1, Jurkat, 72 h, read-out: EC50 AZTR.
A further assay deals with VZV. Kind of assay: Activity against replication of non-retroviruses. The class given is cell-based.
A further assay concerns NCp7(11-55). In words: Zinc ejection monitored by Trp37 intrinsic fluorescence. The class given is biochemical, HIV-1. How it is done:
Ejection of 50% of the zinc is observed in less than 5 minutes (Figure 4C).
As a reference, NCp7(11-55) was treated with 1 mM EDTA, a well known zinc chelator (triangle). […] (B) Time-dependent zinc ejection from NCp7(11-55). […] The data points (stars) corresponded to the fluorescence intensity at the maximum emission wavelength from panel B. Solid line represents a double-exponential fit to the data. (D) Zinc ejection from NCp7(11-55) in the presence of an excess of zinc. Emission spectra of the NCp7(11-55) (1 μM) in the presence of an excess of 100 μM zinc (triangle). […] The emission spectrum of NCp7(11-55) incubated with 1 mM EDTA (triangle) for one hour is given as a reference.
The NC(11-55) peptide was synthesized by solid phase peptide synthesis on a 433A synthesizer (ABI, Foster City, CA), as previously described. The lyophilized peptide was dissolved in water, and its concentration was determined using an extinction coefficient of 5,700 M^–1 x cm^–1 at 280 nm. Next, 2.5 molar equivalents of ZnSO4 were added to the peptide and pH was raised to its final value, by adding buffer. The increase of pH was done only after zinc addition to avoid oxidization of the zinc-free peptide.
Absorption spectra were recorded on a Cary 400 spectrophotometer. Fluorescence spectra were recorded at 20°C on a Fluorolog spectrofluorometer (Horiba, Jobin-Yvon), equipped with a thermostated cell compartment. Excitation wavelength was 295 nm and 520 nm, for NC(11-55) and Rh6G-5^′-cTAR-3^′-Dabcyl, respectively. The spectra were corrected for dilution and buffer fluorescence. The protein spectra were additionally corrected for screening effects due to the zinc ejecting agent, using: […]

Assay [4] relates to HIV-2 ROD. Kind of assay: Anti-HIV activity in CEM cells (cytopathogenicity). It counts as cell-based. The following applies: Human immunodeficiency virus 2, CCRF-CEM.
Another assay has as its system NC(11-55). In words: Zinc ejection monitored by supramolecular mass spectrometry. The class given is biochemical, HIV-1. The following applies: non-denaturing MS, Vc = 20 V, Pi = 6 mbar. How it is done: Purity and homogeneity of NC(11-55) were verified by mass analysis in denaturing conditions. In these acidic conditions, zinc is released from the peptide; and a molecular weight of 5137. 7 ± 0.4 Da was measured, in agreement with the expected mass of the zinc-free NC form (5137.9 Da). […] This is in contrast to the earlier discovered DIBA zinc ejectors for which the Zn ejection is accompanied by the formation of covalent complexes formed between the compound and Cys residues of Zn-depleted NCp7 [25].
Figure 5 Zinc ejection as monitored by mass spectrometry. […] Under non-denaturing conditions (Vc = 20 V, Psi = 6 mbar), the mass measured for NCp7(11-55) alone is 5264.0 Da corresponding to the NC peptide complexed with two zinc ions.
Before mass spectrometry (MS) analysis, NC(11-55) was dissolved and buffer exchanged with 50 mM ammonium acetate pH 7.0 using 4 cycles of microcentrifuge size exclusion filtering (Vivaspin 500 5kD, Sartorius Stedim biotech, Aubagne, France) and peptide concentration was measured by a Bradford assay. […]
Analyses under non-denaturing conditions were carried out after careful optimization of instrumental settings to avoid dissociation of noncovalent bonds and obtain sensible detection of protein/zinc complexation states. […] Peak intensities were used to estimate the ratios of the different ions detected.

In assay [5] the test system is HIV-1 IIIB. Kind of assay: Virucidal assay: virus pre-incubated with compound, diluted, titrated on MT-4 cells. The following applies: for CCID50/ml HIV-1 IIIB: no drug 1 × 10^6.
In assay [6] the test system is HIV-2 ROD. In words: GFP-assay in Jurkat A72 (LTR-GFP) cells. It counts as cell-based. The following applies: Human immunodeficiency virus 2, 72 h, 3 days after infection.
Setting [7] is: 10 μM compound, 1 μM NCp7(11-55).

Regarding `Cn1sc(=N)nc1-c1ccccc1` [WDO-217, 2-methyl-3-phenyl-2H-[1,2,4]thiadiazol-5-ylideneamine], the EC50 with HIV-1 IIIB [1] was 8.3 ± 1.8 µM; in the assay on HIV-2 ROD [2] it was 2.3 ± 0.3 µM; in the assay on HIV-1 IIIB [3] (Human immunodeficiency virus 1, IIIB, MT4, 120 h), 5 ± 3 µM; with HIV-1 IIIB [3], 7.9 ± 3.3 µM; in the assay on NL4.3/AMD3100R, 1.7 ± 0.9 µM; in the assay with AZTR HIV-1 strain, 1.5 ± 0.6 µM. In addition, the EC50 in the assay with HIV-2 ROD [4] worked out at 15 ± 6.7 µM; with HIV-2 ROD [6], 1.04 ± 0.3 µM. The “activity against replication of HSV” value with HSV was “inactive”. For the same compound, in the assay on UG270 subtype D, the “CCID50/ml UG270 subtype D” value is listed as 6446 CCID50/ml. The “virus-associated p24 core protein after treatment” value with HIV-1 virus particles is reported as “did not affect”. In the assay with UG275 subtype A, the “CCID50/ml UG275 subtype A” value was 2558 CCID50/ml. The “activity against replication of VZV” value in the assay with VZV is “inactive”. In addition, in the assay with NCp7(11-55) (setting [7]), the “time to complete zinc ejection” value came out at 35 min. Further, in the assay with NCp7(11-55) (setting [7]), the “time to ejection of 50% of the zinc” value was “less than 5 minutes”. Also, the “zinc ejection (decrease of Trp37 fluorescence, same as 1 mM EDTA)” value in the assay with NCp7(11-55) (10-fold excess (10 μM), 1 h pre-incubation) is listed as “efficiently ejects zinc”. Also, the “covalent complex between NC(11-55) and compound” value in the assay with NC(11-55) is reported as “no covalent complex”. Further, the “CCID50/ml HIV-1 IIIB” value is listed as 5.4 × 10^6 CCID50/ml with HIV-1 IIIB [5] (virus incubated 1 h 37°C with 0.2 μM); 1.6 × 10^6 CCID50/ml in the assay with HIV-1 IIIB [5] (virus incubated 1 h 37°C with 1 μM); 1 × 10^6 CCID50/ml with HIV-1 IIIB [5] (virus incubated 1 h 37°C with 5 μM); 0 CCID50/ml in the assay on HIV-1 IIIB [5] (virus incubated 1 h 37°C with 25 μM); 0 CCID50/ml with HIV-1 IIIB [5] (virus incubated 1 h 37°C with 625 μM). Further, the “Infectivity of pre-incubated HIV-1 virus” value in the assay on HIV-1 IIIB [5] (virus incubated at 26, 130 and 650 μM, 1 h 37°C) is recorded as “no longer able to infect cells”.

(Values after PMC3542062, “A phenyl-thiadiazolylidene-amine derivative ejects zinc from retroviral nucleocapsid zinc fingers and inactivates HIV virions” (Retrovirology, 2012).)
